Measured values reported in patent US8969325B2, “TRPV1 antagonists” (AbbVie Inc., priority 2011, dated 2015).

How the values were obtained:
human TRPV1 [1] = biological target: T1, human TRPV1 (Homo sapiens (Human), UniProt Q8NER1); assay: Capsaicin Activation Assay (intracellular Ca2+, FLIPR); type: cell-based; conditions: recombinant HEK293 cells expressing hTRPV1, 50 nM capsaicin
Protocol: (Logan, Utah). Dulbecco's phosphate-buffered saline (D-PBS) (with 1 mg/mL glucose and 3.6 mg/l Na pyruvate, without phenol red), L-glutamine, hygromycin B, and Lipofectamine® were obtained from Life Technologies (Grand Island, N.Y.). G418 sulfate was obtained from Calbiochem-Novabiochem Corp. (San Diego, Calif.). […] (St. Louis, Mo.). […] The cDNA for human TRPV1 (hTRPV1) was isolated by reverse transcriptase-polymerase chain reaction (RT-PCR) from human small intestine poly A+ RNA supplied by Clontech (Palo Alto, Calif.) using primers designed surrounding the initiation and termination codons identical to the published sequences (Hayes et al. […] The resulting cDNA PCR products were subcloned into pCIneo mammalian expression vector (Promega) and fully sequenced using fluorescent dye-terminator reagents (Prism, PerkinElmer Applied Biosystems Division) and a PerkinElmer Applied Biosystems Model 373 DNA sequencer or Model 310 genetic analyzer. Expression plasmids encoding the hTRPV1 cDNA were transfected into HEK293 cells using Lipofectamine®. Forty-eight hours after transfection, the neomycin-resistant cells were selected with growth medium containing 800 μg/mL Geneticin (Life Technologies, formerly Gibco BRL). Surviving individual colonies were isolated and screened for TRPV1 activity. […] Compound stocks, 10 mM, were prepared in DMSO, and diluted serially across a 384-well plate using a Bravo BenchCel workstation (Agilent Technologies, Santa Clara, Calif.). […] On the day prior to the experiment, the recombinant HEK293 cells expressing human TRPV1 (hTRPV1) were removed from tissue culture flasks and plated in growth medium into black-walled clear-bottom 384-well Biocoat™ poly-D-lysine assay plates (BD Biosciences, Bedford, Mass.) using a Multidrop® dispenser (ThermoScientific, Waltham, Mass.). […] Molecular Devices, Sunnyvale, Calif.) was added to each well using the Multidrop® dispenser. […] Fluorescence readings were made at 1 to 5 second intervals over the course of the experimental run.

human TRPV1 [2] = biological target: T1, human TRPV1; assay: Acid Activation Assay (pH 5.0, intracellular Ca2+, FLIPR); type: cell-based; conditions: percentage of the maximal pH 5.0-induced response remaining; recombinant HEK293 hTRPV1 cells; maximum concentration tested 37.5 μM
Protocol: Dulbecco's modified Eagle's medium (DMEM) with 4.5 m g/mL D-glucose, fetal bovine serum, L-glutamine, and 2-morpholinoethanesulfonic acid (MES) were purchased from Sigma-Aldrich Co. (St. Louis, Mo.). Dulbecco's phosphate-buffered saline (DPBS) with Ca^2+, Mg^2+, and 1 mg/mL D-glucose (pH 7.4), Geneticin®, 0.25% trypsin-1 mM EDTA, and penicillin-streptomycin were purchased from Invitrogen Corp. (Carlsbad, Calif.). The FLIPR® Calcium 4 assay kit was purchased from Molecular Devices (Sunnyvale, Calif.).
The cDNA for human TRPV1 (hTRPV1) was isolated by reverse transcriptase-polymerase chain reaction (RT-PCR) from human small intestine poly A+ RNA supplied by Clontech (Palo Alto, Calif.) using primers designed surrounding the initiation and termination codons identical to the published sequences (Hayes et al. Pain 2000, 88, 205-215). The resulting cDNA PCR products were subcloned into pCIneo mammalian expression vector (Promega) and fully sequenced using fluorescent dye-terminator reagents (Prism, PerkinElmer Applied Biosystems Division) and a PerkinElmer Applied Biosystems Model 373 DNA sequencer or Model 310 genetic analyzer. Expression plasmids encoding the hTRPV1 cDNA were transfected into HEK293 cells using Lipofectamine®. Forty-eight hours after transfection, the neomycin-resistant cells were selected with growth medium containing 800 μg/mL Geneticin (Life Technologies, formerly Gibco BRL). Surviving individual colonies were isolated and screened for TRPV1 activity. Cells expressing recombinant TRPV1 were maintained at 37° C. in DMEM containing 4 mM L-glutamine, 300 μg/mL G418 (Calbiochem) and 10% fetal bovine serum under a humidified 5% CO2 atmosphere.
The functional activity of compounds at the TRPV1 receptor was determined by measurement of intracellular Ca^2+ levels ([Ca^2+]i) using the Fluorescence Imaging Plate Reader (FLIPR)TETRA®. All compounds were tested over a 12-point one-half-log concentration range with 37.5 μM being the maximum concentration tested. Compound stocks, 10 mM, were prepared in DMSO, and diluted serially across a 384-well plate using a Bravo BenchCel workstation (Agilent Technologies, Santa Clara, Calif.). On the day prior to the experiment, the recombinant HEK293 cells expressing human TRPV1 (hTRPV1) were removed from tissue culture flasks and plated in growth medium into black-walled clear-bottom 384-well Biocoat™ poly-D-lysine assay plates (BD Biosciences, Bedford, Mass.) using a Multidrop® dispenser (ThermoScientific, Waltham, Mass.). On the day of the experiment growth medium was removed, and the no-wash FLIPR® Calcium-4 dye (λEX=470-495 nm, λEM=515-575 nm) was added to each well using the Multidrop® dispenser. The plated cells were incubated for 90-120 min in the dark at 25° C. The test compounds dissolved in DMSO were then added to the plates using an Agilent Bravo workstation (Agilent Technologies Inc., Santa Clara, Calif.). Three minutes later, a pH 5.0 solution was added to each well. Reagents were delivered at a rate of 40 μL/sec, and the final assay volume was 80 μL. Acidic pH solutions were prepared by titration of DPBS/MES with 1 N HCl. The intensity of the fluorescence was captured and digitally transferred to an interfaced PC. The maximum peak measured for the concentration range tested was used to calculate the corresponding peak increase in fluorescence over baseline (relative fluorescence units) which was expressed as the percentage (max % remain) of the maximal pH 5.0-induced response.
Table 1 reports the percentage (max % remain) of the maximal pH 5.0-induced response measured for the compounds tested in the recombinant HEK293 cell assay. Most of the compounds tested inhibited calcium flux only partially following TRPV1 activation by the pH 5.0 solution.

T1 sequence (Q8NER1 whole entry): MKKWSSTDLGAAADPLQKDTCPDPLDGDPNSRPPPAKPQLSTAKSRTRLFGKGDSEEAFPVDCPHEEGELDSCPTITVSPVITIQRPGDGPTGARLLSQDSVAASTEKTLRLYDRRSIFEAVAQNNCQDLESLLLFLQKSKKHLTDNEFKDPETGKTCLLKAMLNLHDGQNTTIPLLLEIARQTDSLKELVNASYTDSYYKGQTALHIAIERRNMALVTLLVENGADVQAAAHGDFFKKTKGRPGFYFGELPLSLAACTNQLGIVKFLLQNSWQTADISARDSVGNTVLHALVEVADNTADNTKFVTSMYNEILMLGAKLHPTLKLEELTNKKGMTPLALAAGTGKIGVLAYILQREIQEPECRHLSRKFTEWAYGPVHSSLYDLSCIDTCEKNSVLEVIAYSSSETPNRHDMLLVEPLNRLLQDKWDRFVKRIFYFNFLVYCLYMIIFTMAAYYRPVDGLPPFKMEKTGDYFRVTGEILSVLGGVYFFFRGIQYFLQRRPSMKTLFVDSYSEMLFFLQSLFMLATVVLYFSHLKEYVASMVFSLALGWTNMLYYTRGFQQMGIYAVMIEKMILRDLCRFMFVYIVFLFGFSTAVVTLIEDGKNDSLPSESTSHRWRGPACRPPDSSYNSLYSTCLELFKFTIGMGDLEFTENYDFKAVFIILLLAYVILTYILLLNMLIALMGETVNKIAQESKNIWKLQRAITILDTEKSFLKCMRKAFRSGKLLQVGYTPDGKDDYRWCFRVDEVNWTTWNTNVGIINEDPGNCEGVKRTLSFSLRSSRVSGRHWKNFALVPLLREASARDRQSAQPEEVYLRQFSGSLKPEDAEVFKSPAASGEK

SMILES | IC50 (human TRPV1 [1]) [nM] | human TRPV1 H^+ (max % remain) (human TRPV1 [2]) [%]
CCC1(CC)C[C@@H](NC(=O)Nc2ccc3c(c2)NC(=O)N(C)C3)c2cc(F)ccc2O1 [Example 189, 1-[(4R)-2,2-diethyl-6-fluoro-3,4-dihydro-2H-chromen-4-yl]-3-(3-methyl-2-oxo-1,2,3,4-tetrahydroquinazolin-7-yl)urea] | 200 | 40
CCC1(CC)C[C@@H](NC(=O)Nc2ccc3c(c2)NC(=O)N(C)C3)c2ccc(Cl)cc2O1 [Example 181, 1-[(4R)-7-chloro-2,2-diethyl-3,4-dihydro-2H-chromen-4-yl]-3-(3-methyl-2-oxo-1,2,3,4-tetrahydroquinazolin-7-yl)urea] | 210 | 28
CN1C(=O)CCc2ccc(NC(=O)N[C@@H]3CC(C)(C)Oc4c3ccc(F)c4F)cc21 [Example 299, 1-[(4R)-7,8-difluoro-2,2-dimethyl-3,4-dihydro-2H-chromen-4-yl]-3-(1-methyl-2-oxo-1,2,3,4-tetrahydroquinolin-7-yl)urea] | 54 | 84
CC1(C)C[C@@H](NC(=O)Nc2ccc3c(c2)NC(=O)CO3)c2ccc(Cl)cc2O1 [Example 114, 1-[(4R)-7-chloro-2,2-dimethyl-3,4-dihydro-2H-chromen-4-yl]-3-(3-oxo-3,4-dihydro-2H-1,4-benzoxazin-6-yl)urea] | 56 | 99
CN1Cc2ccc(NC(=O)N[C@@H]3CC(CF)(CF)Oc4cc(F)ccc43)cc2NC1=O [Example 209, 1-[(4R)-7-fluoro-2,2-bis(fluoromethyl)-3,4-dihydro-2H-chromen-4-yl]-3-(3-methyl-2-oxo-1,2,3,4-tetrahydroquinazolin-7-yl)urea] | 290 | 57
CN1C(=O)CCc2ccc(NC(=O)N[C@@H]3CC(CF)(CF)Oc4ccc(F)cc43)cc21 [Example 267, 1-[(4R)-6-fluoro-2,2-bis(fluoromethyl)-3,4-dihydro-2H-chromen-4-yl]-3-(1-methyl-2-oxo-1,2,3,4-tetrahydroquinolin-7-yl)urea] | 380 | 63
CC1(C)C[C@@H](NC(=O)Nc2ccc3c(c2)NC(=O)N(CCO)C3)c2ccc(Cl)c(F)c2O1 [Example 61, 1-[(4R)-7-chloro-8-fluoro-2,2-dimethyl-3,4-dihydro-2H-chromen-4-yl]-3-[3-(2-hydroxyethyl)-2-oxo-1,2,3,4-tetrahydroquinazolin-7-yl]urea] | 1200 | 2
CN(CCO)C1Cc2ccc(NC(=O)N[C@@H]3CC(CF)(CF)Oc4cc(Cl)ccc43)cc2NC1=O (stereo partly drawn) [Example 304, 1-[(4R)-7-chloro-2,2-bis(fluoromethyl)-3,4-dihydro-2H-chromen-4-yl]-3-{3-[(2-hydroxyethyl)(methyl)amino]-2-oxo-1,2,3,4-tetrahydroquinolin-7-yl}urea] | 230 | 0
O=C1COc2ccc(NC(=O)N[C@@H]3CC(CF)(CF)Oc4cc(Cl)ccc43)cc2N1 [Example 29, 1-[(4R)-7-chloro-2,2-bis(fluoromethyl)-3,4-dihydro-2H-chromen-4-yl]-3-(3-oxo-3,4-dihydro-2H-1,4-benzoxazin-6-yl)urea] | 100 | 93

The next lines start with the values.

IC50 (human TRPV1 [1]) [nM] | human TRPV1 H^+ (max % remain) (human TRPV1 [2]) [%] | SMILES
57 | 0 | O=C(Nc1ccc2c(c1)NC(=O)N(CCO)C2)N[C@@H]1CC(CF)(CF)Oc2ccccc21 [Example 314, 1-[(4R)-2,2-bis(fluoromethyl)-3,4-dihydro-2H-chromen-4-yl]-3-[3-(2-hydroxyethyl)-2-oxo-1,2,3,4-tetrahydroquinazolin-7-yl]urea]
220 | 33 | CN1C(=O)NCc2c(NC(=O)N[C@@H]3C[C@](C)(CF)Oc4ccccc43)cccc21 [Example 163, 1-[(2R,4R)-2-(fluoromethyl)-2-methyl-3,4-dihydro-2H-chromen-4-yl]-3-(1-methyl-2-oxo-1,2,3,4-tetrahydroquinazolin-5-yl)urea]
19 | 53 | Cn1c(=O)ccc2c(NC(=O)N[C@@H]3CC(C)(C)Oc4c(F)cccc43)cccc21 [Example 94, 1-[(4R)-8-fluoro-2,2-dimethyl-3,4-dihydro-2H-chromen-4-yl]-3-(1-methyl-2-oxo-1,2-dihydroquinolin-5-yl)urea]
86 | 44 | CN1Cc2ccc(NC(=O)N[C@@H]3CC(C)(C)Oc4cc(C(F)(F)F)ccc43)cc2NC1=O [Example 184, 1-[(4R)-2,2-dimethyl-7-(trifluoromethyl)-3,4-dihydro-2H-chromen-4-yl]-3-(3-methyl-2-oxo-1,2,3,4-tetrahydroquinazolin-7-yl)urea]
39 | 47 | Cn1c(=O)ccc2c(NC(=O)N[C@@H]3CC(C)(C)Oc4c3cccc4C(F)(F)F)cccc21 [Example 93, 1-[(4R)-2,2-dimethyl-8-(trifluoromethyl)-3,4-dihydro-2H-chromen-4-yl]-3-(1-methyl-2-oxo-1,2-dihydroquinolin-5-yl)urea]
32 | 17 | CCC1(CC)C[C@@H](NC(=O)Nc2cccc3c2ccc(=O)n3C)c2ccc(OC(F)(F)F)cc2O1 [Example 76, 1-[(4R)-2,2-diethyl-7-(trifluoromethoxy)-3,4-dihydro-2H-chromen-4-yl]-3-(1-methyl-2-oxo-1,2-dihydroquinolin-5-yl)urea]
29 | 46 | Cn1c(=O)ccc2c(NC(=O)N[C@@H]3CC(CF)(CF)Oc4ccc(F)cc43)cccc21 [Example 71, 1-[(4R)-6-fluoro-2,2-bis(fluoromethyl)-3,4-dihydro-2H-chromen-4-yl]-3-(1-methyl-2-oxo-1,2-dihydroquinolin-5-yl)urea]
32 | 28 | CN1C(=O)NCc2c(NC(=O)N[C@@H]3C[C@](C)(C(F)F)Oc4ccccc43)cccc21 [Example 12, 1-[(2R,4R)-2-(difluoromethyl)-2-methyl-3,4-dihydro-2H-chromen-4-yl]-3-(1-methyl-2-oxo-1,2,3,4-tetrahydroquinazolin-5-yl)urea]
